# Experimental data published in patent US8965708B2, “Method for the treatment of acquired lymphedema” (The Board of Trustees of the Leland Stanford Junior …, priority 2006, dated 2015).
# Entries after “also recorded” stand apart in the source; their conditions may differ.
# Assays:
# CD30 and IgE levels = experiment: Human study: serum analysis of CD30 and IgE; assay type: in vivo; details: pre to post treatment
# patients with lymphedema [1] = experiment: Human study: volume of fluid lost from affected limb after 90 days ketoprofen; assay type: in vivo; details: 75 mg orally twice or three times per day for 90 days
# Procedure: FIG. 23. […] For the purposes of comparing bilateral results to unilateral results, volume lost in bilateral lymphedema was calculated by determining the total volume lost and dividing by 2.
# Biopsies were taken pre- and post-treatment, and clinical responses were reassessed monthly. 44 participants were enrolled (FIG. 22), 38 of which had completed the study at the time the data was collected. Average age of the patient was 57 years+/−14 years (24-85 years of age). The average length of time that the patient had had lymphedema was 10+/−10 years (0.5-40 years). Lymphedema was due to the following: breast cancer (12 patients (27.3%)); cervical cancer (6 patients (13.6%)); uterine cancer (2 patients (4.5%)); ovarian cancer (2 patients (4.5%)); penile cancer (1 patient (2.3%)); Hodgkin's lymphoma (2 patients (4.5%)); trauma (5 patients (11.4%)); infection (3 patients (6.8%)); venous insufficiency (3 patients (6.8%)); May-Thurner syndrome (2 patients (4.5%)); primary lymphedema ([…]); other (2 patients (4.5%)).
# [2] = tested on: tail lymphedema in SKH-1 mice; experiment: Histology and histomorphometric quantitation of epidermal thickness (Example 4); assay type: in vivo, mouse; details: for histological changes in mice with lymphedema: hematoxylin/eosin
# Procedure: Immediately after sacrifice, 0.5-g sections of tail were harvested for histological analysis and RNA extraction. Sections extended from a point 4 mm proximal to the surgical incision to 8 mm beyond it. The specimens were fixed overnight in 4% paraformaldehyde, embedded in paraffin, cut into 5-μm sections, stained with hematoxylin and eosin (Richard-Allan Scientific, Kalamazoo, Mich.), and examined by light microscopy.
# Epidermal thickness was measured serially using digital images of histology slides stained with hematoxylin and eosin. Processing and analysis were performed using Adobe Photoshop CS4 and ImageJ (http://rsbweb.nih.gov/ij) as previously described with modifications (Sanders J E, et al. Comput Methods Programs Biomed. 1999; 59:167-180). Quantitative measurements were imported to Prism 5 software (GraphPad Software Inc., La Jolla, Calif.) for statistical analysis and graphing.
# Log Kow = assay type: physicochemical
# patients with lymphedema [3] = experiment: Human study: participant outcomes following the clinical trial; assay type: in vivo
# [4] = tested on: CD11B+ cells and CD4+ helper T cells in affected tissue; experiment: Human study: immunohistochemistry of CD11b+ and CD4+ cell infiltrates in biopsies; assay type: in vivo; details: 4th clinical follow up visit
# Procedure: FIG. 26. […] 3 samples from each patient were analyzed by paired analysis: NL (biopsy from an unaffected limb), 1-LY (biopsy from affected limb), and 4-LY (4th clinical follow up visit).
# FIG. 29. Quantification of CD4+ helper T cell involvement in lymphedema pathology. 3 samples from each patient were analyzed by paired analysis: NL (biopsy from an unaffected limb), 1-LY (biopsy from affected limb), and 4-LY (4th clinical follow up visit).
# To determine the cellular basis for the lymphedema pathology, lymphedemous tissue was analyzed for the aberrant presence of immune cells.
# patients with lymphedema [5] = experiment: Human study: histology of cutaneous biopsies (Hematoxylin and Eosin, Sirius Red); assay type: in vivo; details: 90 days / 3 months after start of treatment
# From the text: FIG. 24. Tissue architecture before and after ketoprofen treatment. (A) Cutaneous biopsies stained with Hematoxylin and Eosin. (B) Cutaneous biopsies stained with Hoechst. “Normal”: unaffected contralateral limb. “Lymphedema, Pre-Rx”: affected tissue at the start of treatment. “Lymphedema post-Rx”: affected tissue 90 days following treatment.
# FIG. 25. […] Fibrotic response (thickening tissue, collagen deposition in dermis and subdermis) is quantified by measuring the mean pixel intensity of Sirius Red uptake. […] In lymphedemous tissue (LY), an increase in fibrotic tissue is observed. Three months after the start of treatment (Rx/NL), the tissue has returned to a healthy state. Y axis is the ratio of paired samples. “NL/NL”: fibrosis in unaffected tissue, normalized to the pixel intensity of Sirius Red uptake in the unaffected tissue. “LY/NL”: fibrosis at the start of treatment, normalized to the pixel intensity of Sirius Red uptake in the unaffected tissue. “Rx/NL”: fibrosis after 3 months treatment, normalized to the pixel intensity of Sirius Red uptake in the unaffected tissue.
# Biopsies were taken pre- and post-treatment, and clinical responses were reassessed monthly. 44 participants were enrolled (FIG. 22), 38 of which had completed the study at the time the data was collected. Average age of the patient was 57 years+/−14 years (24-85 years of age). […]
# [6] = tested on: gene expression in lymphedemous tissue; experiment: Paired whole genome transcriptional profiling of human lymphedema (Agilent human array); assay type: in vivo; details: of the 8431 genes altered in lymphedema versus normal tissue
# Procedure: Paired whole genome transcriptional profiling was performed using the Agilent human array (n=30). Expression profiles of untreated and post-treated lymphedemous tissue were compared to the normal cutaneous RNA from the same subject.
# [7] = Mass spectrometry of ketoprofen in tissue following topical administration; assay type: in vivo, mouse; details: topical preparation delivered daily to mice; mass spectrometry of biopsy
# [8] = tested on: cytokine levels in tail skin; experiment: Tissue cytokine assays (Luminex) in tail skin homogenates; assay type: in vivo, mouse
# Procedure: Cytokine levels in tail skin were measured in normal controls and mice with untreated, NSAID-treated, and sTNF-R1-treated lymphedema (n=3 per group) sacrificed on postoperative day 7. The Luminex LabMap200 System was used to measure the levels of 42 cytokines from the supernatant of tissue homogenates. Multiplex cytokine kits were purchased from Panomics (Fremont, Calif.), and the assay was performed according to the manufacturer's recommendation with the following modifications: 25-50 μl of samples, standards, and controls were added in duplicate to 96-well filter plates pre-configured with a panel of anti-cytokine antibodies covalently linked to unique polystyrene beads. The plate was incubated overnight at 4° C. in the dark with shaking at 500 rpm, vacuum aspirated, and washed three times with 140 μl of wash buffer to remove unbound antigen. Biotinylated detection antibody solution (25 μl) was added to each well and incubated for 1 hour with shaking at 500 rpm at room temperature. The plate was incubated with 50 μl of streptavidin-phycoerythrin for 35 minutes and then with 120 μl of reading buffer for 3 minutes at room temperature with shaking. After laser excitation, digital images of the bead array were captured with a CCD camera and analyzed on a computer workstation with BeadView software.
# [9] = tested on: TNF-α, MCP-1, VEGF-C, VEGF-D, VEGFR-3, Prox1, LYVE-1 expression; experiment: Targeted gene expression analysis by quantitative real-time RT-PCR in tail skin; assay type: in vivo, mouse
# Procedure: Primers and probes were from Assays-on-Demand (Applied Biosystems, Foster City, Calif.). cDNA was synthesized from 5 μg of total RNA with Taqman reverse-transcription reagents (Applied Biosystems) and amplified in triplicate at 50° C. for 2 minutes and 95° C. for 10 minutes, followed by 40 cycles of 95° C. for 15 seconds and 60° C. for 1 minute. Reactions without template and/or enzyme were used as negative controls. 18S ribosomal RNA served as an internal control. A standard curve derived from embryonic mouse RNA was plotted for each target gene by linear regression using SPSS software (v. 11.0, Applied Biosystems). RNA quantity was expressed relative to the corresponding 18S control. Fold differences were calculated by dividing the experimental results by the pooled normal results and were plotted on a log 10 scale.
# [10] = postoperative day 7, listed as NSAID
# [11] = day 11, lymphedema mice, listed as NSAID
# [12] = lymphedema mice, listed as NSAID
compound,measurement,setting,value
CC(C(=O)O)c1cccc(C(=O)c2ccccc2)c1 (stereo not shown) [ketoprofen],"serum CD30 amounts, average decrease after treatment",CD30 and IgE levels,13%
same,"fluid lost from the affected limb, unilateral lymphedema (average)",patients with lymphedema [1],354 milliliters
same,"fluid lost from one affected limb, bilateral lymphedema (average)",patients with lymphedema [1]; total volume lost divided by 2,533 milliliters
same,epidermal thickness (ET) compared to untreated LY mice,[2]; FIG. 14B,significantly reduced
same,"epidermal thickness decreased, compared to untreated lymphedema mice",[2]; day 11,47.0±5.1%
same,histological changes in mice with lymphedema,[2]; day 11,substantial normalization from the untreated histology
same,histological changes in mice with lymphedema,"[2]; day 11, listed as NSAID",normalization of histological changes; also recorded: normalizes these pathological findings
same,Log Kow,Log Kow,3.00
same,participants who describe the affected limb as normal in size,patients with lymphedema [3],2%
same,participants who described relief from pain,patients with lymphedema [3],7%
same,participants who discontinued chronic use of compression garments,patients with lymphedema [3],9%
same,participants who elected to continue off-label treatment,patients with lymphedema [3],100%
same,participants who noted that the affected limb feels lighter,patients with lymphedema [3],7%
same,participants who noted that the compression garment is loose,patients with lymphedema [3],2%
same,CD4+ cells in affected tissue after treatment,[4],absent
same,CD11B+ cells in affected tissue after treatment,[4],absent; also recorded: returns CD11b counts to normal
same,"tissue architecture, protein deposition and fibrosis in cutaneous biopsies",patients with lymphedema [5],reversal of disease-associated protein deposition and fibrosis; also recorded: restoration in the tissue architecture; also recorded: abrogates the inflammation that leads to a fibrotic response in the skin
same,fraction of altered genes displaying directional normalization after treatment,[6],72%
same,number of genes displaying directional normalization after treatment,[6],6050
same,permeation of topically administered drug into skin layers,[7],permeates into the deepest layers of the skin
same,MCP-1 tissue levels (protein),[8]; postoperative day 7,further increased
same,MCP-3 tissue levels (protein),[8]; [10],significantly reduced; also recorded: inhibited
same,macrophage inflammatory protein 1a (MIP1a) tissue levels,[8]; [10],inhibited
same,TNF-α tissue levels (protein),"[8]; postoperative day 7, median fluorescence intensity",significantly higher
same,Prox1 expression,"[9]; day 11, lymphedema mice","significant, parallel up-regulation"
same,TNF-α expression (mRNA),"[9]; day 11, lymphedema mice",further increased
same,MCP-1 expression (mRNA),[9]; [11],significantly induced
same,Prox1 expression,[9]; [11],significantly induced
same,TNF-α expression (mRNA),[9]; [11],significantly induced
same,VEGF-C expression (mRNA),[9]; lymphedema mice,significant upregulation
same,VEGFR-3 expression,[9]; lymphedema mice,significantly upregulated
same,VEGF-C expression (mRNA),[9]; [12],"significant, parallel up-regulation; also recorded: significantly induced"
same,VEGFR-3 expression,[9]; [12],"significant, parallel up-regulation; also recorded: significantly induced"
same,VEGF-D expression (mRNA),"[9]; lymphedema mice, vs vehicle",significant upregulation
